# Measurements published in patent US20060167242A1, “Cephalosporin in crystalline form” (priority 2004, published 2006).
# Experiment: Determination of storage stability of crystalline material (HPLC analysis after storage)
# Type: physicochemical
# Experimental: Determination of Storage Stability of Crystalline Material of Formula I
# A crystalline and an amorphous sample of (6R,7R)-7-[(Z)-2-(5-Amino-[1,2,4]thiadiazol-3yl)-2-hydroxyimino-acetylamino1-8-oxo-3-[(E)-(R)-1′-(5-methyl-2-oxo-1,3]dioxol-4-ylmethoxycarbonyl)-2-oxo-[1,3′]bipyrrolidinyl-3-ylidenemethyl]-8-oxo-5-thia-1-aza-bicyclo[4.2.0]oct-2-ene-2-carboxylic acid were stored at different temperatures for 24 hours, 28 days and for 3 months.
# [1] = 3 months, 5° C. (as compared to −20° C.)
# [2] = storage for 3 months, Temperature 5, Rel. Humidity Ca. 58%
# [3] = storage for 3 months, Temperature 25, Rel. Humidity Ca. 58%
# [4] = storage for 3 months, −20° C., Rel. Humidity Not defined
# [5] = storage for 24 hours, Temperature 5, Rel. Humidity Ca. 58%
# [6] = storage for 24 hours, Temperature 25, Rel. Humidity Ca. 58%
# [7] = storage for 24 hours, Temperature 40, Rel. Humidity Ca. 75%
# [8] = storage for 24 hours, Temperature 60, Rel. Humidity Ca. 75%
# [9] = storage for 24 hours, −20° C., Rel. Humidity Not defined
# [10] = storage for 28 days, Temperature 5, Rel. Humidity Ca. 58%
# [11] = storage for 28 days, Temperature 25, Rel. Humidity Ca. 58%
# [12] = storage for 28 days, −20° C., Rel. Humidity Not defined
SMILES,decomposition on storage (in words) [1],"decomposition on storage (in words) (3 months, 25° C.)","decomposition on storage (in words) (28 days, 5° C.)",Area-% (HPLC) [2] [Area-%],Area-% (HPLC) [3] [Area-%],Area-% (HPLC) [4] [Area-%],Area-% (HPLC) [5] [Area-%],Area-% (HPLC) [6] [Area-%],Area-% (HPLC) [7] [Area-%],Area-% (HPLC) [8] [Area-%],"decomposition on storage (in words) (storage for 24 hours, temperatures above 5° C.)",Area-% (HPLC) [9] [Area-%],Area-% (HPLC) [10] [Area-%],Area-% (HPLC) [11] [Area-%],Area-% (HPLC) [12] [Area-%],"decomposition on storage (in words) (28 days, 25° C.)","stability on storage (in words) (storage for 24 hours, whole temperature range of investigation)"
"Cc1oc(=O)oc1COC(=O)N1CC[C@@H](N2CC/C(=C\C3=C(C(=O)O)N4C(=O)[C@@H](NC(=O)/C(=N\O)c5nsc(N)n5)[C@H]4SC3)C2=O)C1 [amorphous compound I, (6R,7R)-7-[(Z)-2-(5-Amino-[1,2,4]thiadiazol-3yl)-2-hydroxyimino-acetylamino1-8-oxo-3-[(E)-(R)-1′-(5-methyl-2-oxo-1,3]dioxol-4-ylmethoxycarbonyl)-2-oxo-[1,3′]bipyrrolidinyl-3-ylidenemethyl]-8-oxo-5-thia-1-aza-bicyclo[4.2.0]oct-2-ene-2-carboxylic acid]",slight decomposition,strongly decreased,decreased,96.9,91.4,97.6,99.05,98.85,98.25,96.67,decomposed significantly,99.04,98.1,96.4,98.6,–,–
"Cc1oc(=O)oc1COC(=O)N1CC[C@@H](N2CC/C(=C\C3=C(C(=O)O)N4C(=O)[C@@H](NC(=O)/C(=N\O)c5nsc(N)n5)[C@H]4SC3)C2=O)C1.Cl [crystalline compound II, (6R,7R)-7-[(Z)-2-(5-Amino-[1,2,4]thiadiazol-3-yl) -2-hydroxyimino-acetylamino]-8-oxo-3-[(E)-(R)-1′-(5-methyl-2-oxo-[1,3]dioxol-4-ylmethoxycarbonyl)-2-oxo-[1,3′]bipyrrolidinyl-3-ylidenemethyl]-8-oxo5-thia-1-aza-bicyclo[4.2.0]oct-2-ene-2-carboxylic acid Hydrochloride Trihydrate]",no decomposition,slight decomposition,–,93.9,93.4,94,95.7,95.75,95.45,95.57,–,95.77,95.2,94.9,95.3,slight decomposition,very good stability
